Laboratory results from patent US20260248744A1, “USE OF NON-TOXIC POLYAMINE ANALOGUES AND/OR INHIBITORS OF POLYAMINE BIOSYNTHESIS TO RE-BALANCE NATURAL POLYAMINE LEVELS IN SNYDER-ROBINSON SYNDROME AND RELATED DISORDERS” (The Johns Hopkins University, priority 2022, published 2026).
Values belong to the compound of their own block, whether it stands above or below them.

Tests used:
SRS fibroblast lines = experiment: Proliferation of SRS fibroblast lines cotreated with DFMO and Me2Spm; format: cell-based; settings: cotreated with DFMO and Me2Spm for 96 h (FIG. 4C)
Description: (FIG. 4B) DFMO cooperates with Me2Spm in improving SPD/SPM ratio, indicated by numbers above columns. […] In FIG. 4A and FIG. 4B, SRS patient-derived lymphoblastoid cells were pretreated with DFMO followed by 96-h cotreatment with DFMO and Me2Spm. SRS fibroblast lines in FIG. 4C were cotreated with DFMO and Me2Spm for 96 h;

[1] = shown previously (Murray Stewart et al., 2020); cited from earlier work
WT male C57Bl/6J mice = experiment: Long-term in vivo exposure to low-dose (R,R)-1,12-Me2Spm in mice; settings: WT male C57Bl/6J mice (FIG. 2)
From the text: Without wishing to be bound to any one particular theory, it is thought that inhibiting polyamine biosynthesis will enhance uptake of 1,12-Me2Spm and/or reduce the dose necessary for spermidine reduction.

[2] = biological target: T1, spermidine synthase (SRM) (Homo sapiens, UniProt P19623); experiment: Inhibition of spermidine synthase
T1 sequence (P19623 1-302): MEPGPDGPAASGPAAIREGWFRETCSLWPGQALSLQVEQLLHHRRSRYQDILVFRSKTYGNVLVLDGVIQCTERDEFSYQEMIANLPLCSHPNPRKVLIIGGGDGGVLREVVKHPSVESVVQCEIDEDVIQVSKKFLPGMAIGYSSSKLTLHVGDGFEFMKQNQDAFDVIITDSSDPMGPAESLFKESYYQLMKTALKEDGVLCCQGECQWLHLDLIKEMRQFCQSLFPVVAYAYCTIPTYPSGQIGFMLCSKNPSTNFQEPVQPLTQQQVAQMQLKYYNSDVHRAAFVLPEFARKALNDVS

SRS cells = experiment: Treatment of SRS cells with AdoDATO (polyamine levels); format: cell-based; settings: SRS cells (FIG. 6)
[3] = test system: SRS patient-derived cell lines; experiment: Response of SRS patient-derived cell lines to DFMO (conversion of SPD to SPM); format: cell-based
[4] = test system: SRS patient-derived lymphoblastoid cells; experiment: Polyamine levels in SRS patient-derived lymphoblastoid cells treated with DFMO and Me2Spm; format: cell-based; settings: DFMO pretreatment followed by 96-h cotreatment (FIG. 4A)
[5] = test system: SRS cells with a complete loss-of-function mutation in SMS; experiment: Response to DFMO of SRS cells with complete loss-of-function mutation in SMS; format: cell-based; settings: response to DFMO (FIG. 5E)
From the text: (§1) FIG. 5A, FIG. 5B, FIG. 5C, FIG. 5D, and FIG. 5E show potential therapeutic targets and molecules in the response of SRS cells to DFMO.

children = settings: Phase 2 preventative trials in pediatric neuroblastoma; ODC1/Bachmann-Bupp trials; cited from earlier work
SAMDC = SAMDC activity in SRS cells treated with DFMO; format: cell-based; settings: FIG. 5C
From the text: as §1

Compound: C[C@@H](N)CCNCCCCNCC[C@@H](C)N [(R,R)-1,12-dimethylspermine]
rescue of DFMO-mediated growth inhibition (SRS fibroblast lines): rescues DFMO-mediated growth inhibition
metabolic stability [1]: metabolically stable
SPD/SPM ratio (WT male C57Bl/6J mice): improves the SPD/SPM ratio
toxicity of long-term in vivo exposure (WT male C57Bl/6J mice): nontoxic

inhibition of spermidine synthase (SRM) [2]: inhibits spermidine synthase (SRM)
Compound: NCCCCC[S+](CCN)CC1OC(n2cnc3c(N)ncnc32)C(O)C1O (stereo not drawn) [AdoDATO, S-adenosyl-1,8-diamino-3-thio-octane]
SPD/SPM ratio (SRS cells): improves the SPD/SPM ratio
levels of putrescine (SRS cells): maintaining levels of putrescine

Compound: N=C(N)c1cccc2c1CC/C2=N\N=C(N)N [CGP48664]
conversion to SPM on cotreatment with DFMO ([3]; cotreatment of DFMO with SAMDC inhibitor (FIG. 5D)): prevents the conversion to SPM

Compound: difluoromethylornithine [DFMO]
uptake of Me2Spm [4]: increases uptake of Me2Spm
SPD/SPM ratio ([3]; SRS patient-derived cell lines (FIG. 5B)): correction of the SPD/SPM ratio
conversion of SPD to SPM ([3]; hypomorphic SRS cells (FIG. 5A)): enhances conversion of SPD to SPM
conversion of SPD to SPM [5]: do not convert SPD to SPM
safety in children (children): safe in children
levels of putrescine (SRS cells): depletes
SAMDC activity (SAMDC): induces SAMDC activity
